Laboratory results from PubChem BioAssay AID2060621 (Molecular Pharmacology Branch, DTP, NCI, 2025).
Where “and” joins values, the source holds several entries; their conditions need not be identical. Identical values can stand only once.

Tested on: 324938-238-R-J1-PDC complex spheroids viability
Test: Anticancer human tumor 324938-238-R-J1-PDC patient-derived bladder carcinoma cell line growth inhibition [CLK]
Details: for viability, T/C: stronger effect = lower value
In short: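 Multi-cell-type spheroids combined patient-derived tumor cells with HUVEC endothelial cells and human mesenchymal stem cells. Paired agents were dosed in half-log steps down from about clinical Cmax, or from 10 microM where Cmax was unknown.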

[1] = curve of first compound, second compound 0.0316 µM
[2] = curve of first compound, second compound 0.1 µM
[3] = curve of first compound, second compound 0.316 µM
[4] = curve of first compound, second compound 1 µM
[5] = curve of first compound, second compound 3.16 µM
[6] = curve of first compound, second compound 10 µM
[7] = second compound 0.0316 µM, first compound 0.0316 µM
[8] = second compound 0.0316 µM, first compound 0.1 µM
[9] = second compound 0.0316 µM, first compound 0.316 µM
[10] = second compound 0.0316 µM, first compound 1 µM
[11] = second compound 0.0316 µM, first compound 3.16 µM
[12] = second compound 0.0316 µM, first compound 10 µM
[13] = second compound 0.1 µM, first compound 0.0316 µM
[14] = second compound 0.1 µM, first compound 0.1 µM
[15] = second compound 0.1 µM, first compound 0.316 µM
[16] = second compound 0.1 µM, first compound 1 µM
[17] = second compound 0.1 µM, first compound 3.16 µM
[18] = second compound 0.1 µM, first compound 10 µM
[19] = second compound 0.316 µM, first compound 0.0316 µM
[20] = second compound 0.316 µM, first compound 0.1 µM
[21] = second compound 0.316 µM, first compound 0.316 µM
[22] = second compound 0.316 µM, first compound 1 µM
[23] = second compound 0.316 µM, first compound 3.16 µM
[24] = second compound 0.316 µM, first compound 10 µM
[25] = second compound 1 µM, first compound 0.0316 µM
[26] = second compound 1 µM, first compound 0.1 µM
[27] = second compound 1 µM, first compound 0.316 µM
[28] = second compound 1 µM, first compound 1 µM
[29] = second compound 1 µM, first compound 3.16 µM
[30] = second compound 1 µM, first compound 10 µM
[31] = second compound 3.16 µM, first compound 0.0316 µM
[32] = second compound 3.16 µM, first compound 0.1 µM
[33] = second compound 3.16 µM, first compound 0.316 µM
[34] = second compound 3.16 µM, first compound 1 µM
[35] = second compound 3.16 µM, first compound 3.16 µM
[36] = second compound 3.16 µM, first compound 10 µM
[37] = second compound 10 µM, first compound 0.0316 µM
[38] = second compound 10 µM, first compound 0.1 µM
[39] = second compound 10 µM, first compound 0.316 µM
[40] = second compound 10 µM, first compound 1 µM
[41] = second compound 10 µM, first compound 3.16 µM
[42] = second compound 10 µM, first compound 10 µM
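Note: viability read after seven days of drug exposure.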
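Throughout, for viability, T/C: 100% = DMSO vehicle control wells.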

## NC(=O)C(=Cn1cnc(-c2cc(C(F)(F)F)cc(C(F)(F)F)c2)n1)c1cncnc1 + CNC(=O)c1ccc(Nc2nc(OC3CCCC3)c3c(-c4ccc5nc(C)oc5c4)c[nH]c3n2)c(OC)c1
[1]
  IC50: 0.0608 µM
[2]
  IC50: < 0.00949 µM
[3]
  IC50: < 0.00949 µM
[4]
  IC50: < 0.00949 µM
[5]
  IC50: < 0.00949 µM
[6]
  IC50: < 0.00949 µM
Second compound 0.0316 µM, first compound 0.00949 µM
  viability, T/C: 67.1%
Second compound 0.0316 µM, first compound 0.03 µM
  viability, T/C: 74.3%
Second compound 0.0316 µM, first compound 0.0949 µM
  viability, T/C: 36.9%
Second compound 0.0316 µM, first compound 0.3 µM
  viability, T/C: 14.3%
Second compound 0.0316 µM, first compound 0.949 µM
  viability, T/C: 8.38%
Second compound 0.0316 µM, first compound 3 µM
  viability, T/C: 3.32%
Second compound 0.1 µM, first compound 0.00949 µM
  viability, T/C: 21.3%
Second compound 0.1 µM, first compound 0.03 µM
  viability, T/C: 24.6%
Second compound 0.1 µM, first compound 0.0949 µM
  viability, T/C: 16.9%
Second compound 0.1 µM, first compound 0.3 µM
  viability, T/C: 12.7%
Second compound 0.1 µM, first compound 0.949 µM
  viability, T/C: 8.37%
Second compound 0.1 µM, first compound 3 µM
  viability, T/C: 3.77%
Second compound 0.316 µM, first compound 0.00949 µM
  viability, T/C: 15.7%
Second compound 0.316 µM, first compound 0.03 µM
  viability, T/C: 15.5%
Second compound 0.316 µM, first compound 0.0949 µM
  viability, T/C: 13.7%
Second compound 0.316 µM, first compound 0.3 µM
  viability, T/C: 7.83%
Second compound 0.316 µM, first compound 0.949 µM
  viability, T/C: 3.16%
Second compound 0.316 µM, first compound 3 µM
  viability, T/C: 2.69%
Second compound 1 µM, first compound 0.00949 µM
  viability, T/C: 12.9%
Second compound 1 µM, first compound 0.03 µM
  viability, T/C: 12.8%
Second compound 1 µM, first compound 0.0949 µM
  viability, T/C: 9.03%
Second compound 1 µM, first compound 0.3 µM
  viability, T/C: 5.74%
Second compound 1 µM, first compound 0.949 µM
  viability, T/C: 3.19%
Second compound 1 µM, first compound 3 µM
  viability, T/C: 1%
Second compound 3.16 µM, first compound 0.00949 µM
  viability, T/C: 16.2%
Second compound 3.16 µM, first compound 0.03 µM
  viability, T/C: 14.1%
Second compound 3.16 µM, first compound 0.0949 µM
  viability, T/C: 8.67%
Second compound 3.16 µM, first compound 0.3 µM
  viability, T/C: 4.86%
Second compound 3.16 µM, first compound 0.949 µM
  viability, T/C: 2.59%
Second compound 3.16 µM, first compound 3 µM
  viability, T/C: 1.1%
Second compound 10 µM, first compound 0.00949 µM
  viability, T/C: 14.4%
Second compound 10 µM, first compound 0.03 µM
  viability, T/C: 13%
Second compound 10 µM, first compound 0.0949 µM
  viability, T/C: 9.72%
Second compound 10 µM, first compound 0.3 µM
  viability, T/C: 5.02%
Second compound 10 µM, first compound 0.949 µM
  viability, T/C: 2.24%
Second compound 10 µM, first compound 3 µM
  viability, T/C: 0.98%

## CCCS(=O)(=O)Nc1ccc(F)c(C(=O)c2c[nH]c3ncc(-c4ccc(Cl)cc4)cc23)c1F + CNC(=O)c1ccc(Nc2nc(OC3CCCC3)c3c(-c4ccc5nc(C)oc5c4)c[nH]c3n2)c(OC)c1
[1]
  IC50: 8.55 µM
[2]
  IC50: < 0.0316 µM
[3]
  IC50: < 0.0316 µM
[4]
  IC50: < 0.0316 µM
[5]
  IC50: < 0.0316 µM
[6]
  IC50: < 0.0316 µM
[7]
  viability, T/C: 89.8%
[8]
  viability, T/C: 89.2%
[9]
  viability, T/C: 92.1%
[10]
  viability, T/C: 103%
[11]
  viability, T/C: 98.6%
[12]
  viability, T/C: 43%
[13]
  viability, T/C: 31.2%
[14]
  viability, T/C: 32.5%
[15]
  viability, T/C: 29.6%
[16]
  viability, T/C: 29.1%
[17]
  viability, T/C: 35.8%
[18]
  viability, T/C: 33.8%
[19]
  viability, T/C: 19.8%
[20]
  viability, T/C: 18%
[21]
  viability, T/C: 20.9%
[22]
  viability, T/C: 19.3%
[23]
  viability, T/C: 24.4%
[24]
  viability, T/C: 26.1%
[25]
  viability, T/C: 25.1%
[26]
  viability, T/C: 15.8%
[27]
  viability, T/C: 18.2%
[28]
  viability, T/C: 22%
[29]
  viability, T/C: 19.2%
[30]
  viability, T/C: 18.1%
[31]
  viability, T/C: 15.2%
[32]
  viability, T/C: 15.8%
[33]
  viability, T/C: 19.3%
[34]
  viability, T/C: 19.1%
[35]
  viability, T/C: 22.4%
[36]
  viability, T/C: 15.5%
[37]
  viability, T/C: 17.5%
[38]
  viability, T/C: 18.8%
[39]
  viability, T/C: 17.4%
[40]
  viability, T/C: 18.3%
[41]
  viability, T/C: 23.9%
[42]
  viability, T/C: 17.2%

## C=CC(=O)Nc1cc(Nc2nccc(-c3cn(C)c4ccccc34)n2)c(OC)cc1N(C)CCN(C)C
Compound 0.000949 µM
  viability, T/C: 71.7% and 84%
Compound 0.003 µM
  viability, T/C: 79.8% and 82.5%
Compound 0.00949 µM
  viability, T/C: 62.2% and 65.2%
Compound 0.03 µM
  viability, T/C: 69.3% and 61.8%
Compound 0.0949 µM
  viability, T/C: 36.1% and 45.5%
Compound 0.3 µM
  viability, T/C: 22.2% and 22.7%
Curve of compound
  IC50: 0.0583 µM and 0.0618 µM

## CN1CCN(c2cc(C(=O)Nc3cc4cc(-c5cnn(C)c5)ccc4cn3)ccn2)CC1
Compound 0.0316 µM
  viability, T/C: 80.8% [middle of 12 runs]
Compound 0.1 µM
  viability, T/C: 54.8% [middle of 12 runs]
Compound 0.316 µM
  viability, T/C: 22.3% [middle of 12 runs]
Compound 1 µM
  viability, T/C: 1.3% [middle of 12 runs]
Compound 3.16 µM
  viability, T/C: 0.22% [middle of 5 runs]
Compound 10 µM
  viability, T/C: 0.22% [middle of 10 runs]
Compound alone, run of 08/14/2023
  IC50: 116 nM [middle of 10 runs]

## CC1COCCN1c1cc(C2(S(C)(=N)=O)CC2)nc(-c2ccnc3[nH]ccc23)n1 (configuration not stated) + CNC(=O)c1ccc(Nc2nc(OC3CCCC3)c3c(-c4ccc5nc(C)oc5c4)c[nH]c3n2)c(OC)c1
[1]
  IC50: 1.39 µM
[2]
  IC50: < 0.0316 µM
[3]
  IC50: < 0.0316 µM
[4]
  IC50: < 0.0316 µM
[5]
  IC50: < 0.0316 µM
[6]
  IC50: < 0.0316 µM
[7]
  viability, T/C: 90.4%
[8]
  viability, T/C: 89.2%
[9]
  viability, T/C: 71%
[10]
  viability, T/C: 60.7%
[11]
  viability, T/C: 31.1%
[12]
  viability, T/C: 15.5%
[13]
  viability, T/C: 30.8%
[14]
  viability, T/C: 29.2%
[15]
  viability, T/C: 26.2%
[16]
  viability, T/C: 27.4%
[17]
  viability, T/C: 24.1%
[18]
  viability, T/C: 17.1%
[19]
  viability, T/C: 18.6%
[20]
  viability, T/C: 19.4%
[21]
  viability, T/C: 17.2%
[22]
  viability, T/C: 17.4%
[23]
  viability, T/C: 12.9%
[24]
  viability, T/C: 10.9%
[25]
  viability, T/C: 14.7%
[26]
  viability, T/C: 15.8%
[27]
  viability, T/C: 16%
[28]
  viability, T/C: 12.6%
[29]
  viability, T/C: 13.9%
[30]
  viability, T/C: 7.97%
[31]
  viability, T/C: 16.2%
[32]
  viability, T/C: 15.1%
[33]
  viability, T/C: 16.9%
[34]
  viability, T/C: 15.6%
[35]
  viability, T/C: 13.1%
[36]
  viability, T/C: 7.09%
[37]
  viability, T/C: 16.6%
[38]
  viability, T/C: 15.1%
[39]
  viability, T/C: 16.7%
[40]
  viability, T/C: 15.2%
[41]
  viability, T/C: 14.5%
[42]
  viability, T/C: 8.22%

## C=CC(=O)N1CCN(c2nc(=O)n(-c3c(C)ccnc3C(C)C)c3nc(-c4c(O)cccc4F)c(F)cc23)C(C)C1 (configuration not stated) + CNC(=O)c1ccc(Nc2nc(OC3CCCC3)c3c(-c4ccc5nc(C)oc5c4)c[nH]c3n2)c(OC)c1
[1]
  IC50: > 10 µM
[2]
  IC50: < 0.0316 µM
[3]
  IC50: < 0.0316 µM
[4]
  IC50: < 0.0316 µM
[5]
  IC50: < 0.0316 µM
[6]
  IC50: < 0.0316 µM
[7]
  viability, T/C: 92.7%
[8]
  viability, T/C: 95.3%
[9]
  viability, T/C: 96.2%
[10]
  viability, T/C: 102%
[11]
  viability, T/C: 88.8%
[12]
  viability, T/C: 81.4%
[13]
  viability, T/C: 32.6%
[14]
  viability, T/C: 30.8%
[15]
  viability, T/C: 27.9%
[16]
  viability, T/C: 35.1%
[17]
  viability, T/C: 33.5%
[18]
  viability, T/C: 31.6%
[19]
  viability, T/C: 20.4%
[20]
  viability, T/C: 17.4%
[21]
  viability, T/C: 20.7%
[22]
  viability, T/C: 20.4%
[23]
  viability, T/C: 23.9%
[24]
  viability, T/C: 27.4%
[25]
  viability, T/C: 15.3%
[26]
  viability, T/C: 16.1%
[27]
  viability, T/C: 16.5%
[28]
  viability, T/C: 19.3%
[29]
  viability, T/C: 20.5%
[30]
  viability, T/C: 21.5%
[31]
  viability, T/C: 18.3%
[32]
  viability, T/C: 18.4%
[33]
  viability, T/C: 20.4%
[34]
  viability, T/C: 18.8%
[35]
  viability, T/C: 23.7%
[36]
  viability, T/C: 25.5%
[37]
  viability, T/C: 19.4%
[38]
  viability, T/C: 15.6%
[39]
  viability, T/C: 18.5%
[40]
  viability, T/C: 21%
[41]
  viability, T/C: 25.5%
[42]
  viability, T/C: 25.7%
